Laboratory results taken from patent US20090306150A1, “CARBOXYLIC ACID SALTS OF 2-AMINO-3-CARBETHOXYAMINO-6-(4-FLUORO-BENZYLAMINO)-PYRIDINE” (AWD. PHARMA GMBH & CO. KG, priority 2008, published 2009).

Legend:
Type in all cases: physicochemical
[1] = Crystal shape of flupirtine salts (light microscope photomicrographs)
From the text: As referred to herein, the “aspect ratio” denotes the ratio of the second largest dimension of a crystal particle (i.e. its width) to the largest dimension of the crystal particle (i.e. its length). The aspect ratio may be determined from a representative number of crystals by visual observation under a light microscope. The photomicrographs were obtained by gently exerting pressure on the sample material with a mortar and pistil, transferring the sample material to a microscope slide and covering it with immersion oil, followed by observation and image recording on an Optech Biostar microscope equipped with a polarisation filter. The magnification was 200, i.e. at a width of the photomicrograph of 14 cm, 1 cm of said photograph corresponds to about 0.06 mm.

[2] = Determining the bulk density of flupirtine salts; settings: volume per 100.0 g of sample material, about 4 g in 10 ml measuring cylinder, not compacted
Experimental: The bulk density was determined as follows: Without increasing its density, sample material (about 4 grams) was introduced into a 10 ml measuring cylinder (±0.2 ml). The volume and the exact weight of the introduced sample material were determined. The bulk density was calculated as volume per 100.0 g of sample material.

[3] = Storage stability of flupirtine salts (HPLC); settings: for Decrease of the area under the peak of the flupirtine signal: 0 to 14 days of storage at room temperature under normal air; for Flupirtine signal after 14 days (area under the peak in %): HPLC after 14 days of storage at room temperature under normal air, about 21% oxygen; for Flupirtine signal after 0 days (area under the peak in %): HPLC after preparation of the salts
Experimental: [table] HPLC was performed after preparation of the salts and repeated after 14 days of storage at room temperature under normal air containing about 21% oxygen.

[4] = Dissolution profiles of flupirtine acid addition salts in ethanol (compacted substance); settings: 100 mg compacted, 1000 ml ethanol, 37° C., basket 50 UpM
Experimental: The dissolution in Ethanol was measured using compacted substance.
100 mg substance was compacted using a hydraulic press. Diameter of cake: 8.9 mm; pressure 20 kp/cm^2 for 15 sec. Liberation parameter:
Basket, 50 UpM, 1000 ml medium 37° C. Apparatus: DT6R Dissolution Tester (ERWEKA).
At given time points 5.0 ml solution were taken and measured vs. reference at 244 nm at a spectral photometer. The solution was refilled with 5 ml solvent. The amount of liberated substance at given time points was calculated using a response factor (absorption/mg substance). Measuring error: 10%.

[5] = Stability towards oxidation and discoloration when exposed to air; settings: storage period of 30 days at room temperature, in contrast to maleate and gluconate
From the text: Discoloration can take takes place after prolonged storage or when exposed to air. Discoloration is regarded as leading to an active pharmaceutical ingredient (API) of low pharmaceutical quality and can be avoided by using a protective atmosphere in the production process and using expensive packaging materials for the finished drug forms. The discoloration effect is known for flupirtine hydrochloride, flupiritine gluconate and both polymorphs of flupirtine maleate.

[6] = Dissolution profiles of flupirtine acid addition salts in ethanol (compacted substance); settings: after 10 min stirring in ethanol

In the case of `CCOC(=O)Nc1ccc(NCc2ccc(F)cc2)nc1N.O=C(O)/C=C\C(=O)O` [Flupirtine maleate A, Flupirtine Maleate Form A, reference compound], the Crystal shape [1] is reported as “Fine needles”, the “Bulk density (ml/100 g substance)” value [2] is reported as 686 ml/100 g substance and the “Decrease of the area under the peak of the flupirtine signal” value (shortened to “Decrease of the area”) [3] is reported as 3.11%. The “Flupirtine signal after 14 days (area under the peak in %)” value [3] was 96.18%, the “Flupirtine signal after 0 days (area under the peak in %)” value [3] was 99.27% and the “Amount of substance dissolved” value ([4]; 5 min) was 2.1 mg. The “Amount of substance dissolved” value ([4]; 10 min) was 4.1 mg, the “Amount of substance dissolved” value ([4]; 15 min) was 6.5 mg and the “Amount of substance dissolved” value ([4]; 20 min) was 9.5 mg. The “Amount of substance dissolved” value ([4]; 25 min) was 11.7 mg, the “Amount of substance dissolved” value ([4]; 30 min) was 14.3 mg and the “Amount of substance dissolved” value ([4]; 60.25 min) was 24.2 mg.
In the case of `CCOC(=O)Nc1ccc(NCc2ccc(F)cc2)nc1N.O=C(O)/C=C\C(=O)O` [Flupirtine maleate B, Flupirtine Maleate Form B, reference compound], the Crystal shape [1] is reported as “Very fine needles”, the “Bulk density (ml/100 g substance)” value [2] is reported as 1634 ml/100 g substance and the “Decrease of the area” value [3] is reported as 3.22%. The “Flupirtine signal after 14 days (area under the peak in %)” value [3] was 95.92%, the “Flupirtine signal after 0 days (area under the peak in %)” value [3] was 99.12% and the “Amount of substance dissolved” value ([4]; 5 min) was 4.2 mg. For the same compound, the “Amount of substance dissolved” value ([4]; 10 min) was 6.3 mg, the “Amount of substance dissolved” value ([4]; 15 min) was 12.1 mg and the “Amount of substance dissolved” value ([4]; 20 min) was 16.5 mg. The “Amount of substance dissolved” value ([4]; 25 min) was 21.3 mg, the “Amount of substance dissolved” value ([4]; 30 min) was 27.4 mg and the “Amount of substance dissolved” value ([4]; 60.25 min) was 69.5 mg.
With `CCOC(=O)Nc1ccc(NCc2ccc(F)cc2)nc1N` [Flupirtine propionate, 2-amino-3-carbethoxyamino-6-(4-fluoro-benzylamino)-pyridine propionate] the Crystal shape [1] was “Hexagons and polygonal plates”, the “Bulk density (ml/100 g substance)” value [2] was 306 ml/100 g substance and the “Amount of substance dissolved” value ([4]; 5 min) was 110.0 mg. For the same compound, the “Amount of substance dissolved” value ([4]; 10 min) was 109.4 mg, the “Amount of substance dissolved” value ([4]; 15 min) was 110.3 mg and the “Amount of substance dissolved” value ([4]; 20 min) was 107.4 mg. The “Amount of substance dissolved” value ([4]; 25 min) was 109.6 mg, the “Amount of substance dissolved” value ([4]; 30 min) was 110.9 mg and the “Amount of substance dissolved” value ([4]; 60.25 min) was 112.2 mg. For the same compound, the “Stability towards oxidation and towards discoloration” value [5] was “substantially improved stability” and the “Dissolution in ethanol (in words)” value [6] was “completely dissolved”.
With `CCOC(=O)Nc1ccc(NCc2ccc(F)cc2)nc1N.O=C(O)C(F)(F)F` [Flupirtine triflutate, Flupirtine Triflutate] the “Amount of substance dissolved” value ([4]; 5 min) was 98.5 mg, the “Amount of substance dissolved” value ([4]; 10 min) was 115.1 mg and the “Amount of substance dissolved” value ([4]; 15 min) was 108.0 mg. For the same compound, the “Amount of substance dissolved” value ([4]; 20 min) was 107.7 mg and the “Dissolution in ethanol (in words)” value [6] was “completely dissolved”.
With `CC(=O)O.CCOC(=O)Nc1ccc(NCc2ccc(F)cc2)nc1N` [Flupirtine acetate, 2-amino-3-carbethoxyamino-6-(4-fluoro-benzylamino)-pyridine acetate] the Crystal shape [1] was “Hexagons and polygonal plates”, the “Bulk density (ml/100 g substance)” value [2] was 330 ml/100 g substance and the “Decrease of the area” value [3] was 0.9%. The “Flupirtine signal after 14 days (area under the peak in %)” value [3] was 98.64%, the “Flupirtine signal after 0 days (area under the peak in %)” value [3] was 99.54% and the “Amount of substance dissolved” value ([4]; 5 min) was 50.3 mg. The “Amount of substance dissolved” value ([4]; 10 min) was 108.3 mg, the “Amount of substance dissolved” value ([4]; 15 min) was 103.0 mg and the “Amount of substance dissolved” value ([4]; 20 min) was 95.8 mg. For the same compound, the “Amount of substance dissolved” value ([4]; 25 min) was 96.2 mg, the “Amount of substance dissolved” value ([4]; 30 min) was 108.3 mg and the “Amount of substance dissolved” value ([4]; 60.25 min) was 99.7 mg. For the same compound, the “Stability towards oxidation and towards discoloration” value [5] was “substantially improved stability”.
